According to ChEMBL document CHEMBL1147799, “An integrated in silico 3D model-driven discovery of a novel, potent, and selective amidosulfonamide 5-HT1A agonist (PRX-00023) for the treatment of anxiety and depression” (J Med Chem, 2006):

How the values were obtained:
[1] = molecular target: 5-hydroxytryptamine receptor 7 (Homo sapiens, UniProt P34969)
Description: Binding affinity to 5HT7 receptor by radioligand binding assay

[2] = molecular target: T1, 5-hydroxytryptamine receptor 1A (Homo sapiens, UniProt P08908); assay: Displacement of [3H]8-OH-DPAT from human 5HT1A receptor in HEK293 cells
T1 sequence (P08908 whole entry): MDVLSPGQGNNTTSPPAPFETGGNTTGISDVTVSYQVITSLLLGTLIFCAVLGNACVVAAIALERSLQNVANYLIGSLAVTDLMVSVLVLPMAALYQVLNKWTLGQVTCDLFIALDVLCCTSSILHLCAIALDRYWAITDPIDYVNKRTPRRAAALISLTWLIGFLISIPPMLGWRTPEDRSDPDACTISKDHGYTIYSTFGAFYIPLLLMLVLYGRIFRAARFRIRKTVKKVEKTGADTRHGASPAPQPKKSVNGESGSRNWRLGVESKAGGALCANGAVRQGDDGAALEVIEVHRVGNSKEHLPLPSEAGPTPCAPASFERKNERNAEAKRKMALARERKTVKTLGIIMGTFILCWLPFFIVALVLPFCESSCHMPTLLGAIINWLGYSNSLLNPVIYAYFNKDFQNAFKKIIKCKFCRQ

[3] = molecular target: 5-hydroxytryptamine receptor 2A (Homo sapiens, UniProt P28223)
Description: Binding affinity to 5HT2A receptor by radioligand binding assay

[4] = molecular target: T1, 5-hydroxytryptamine receptor 1A; assay: Activity against 5HT1A receptor by Gi-[35S]GTP-gamma-S binding assay; assay type: functional
[5] = molecular target: T2, Adrenergic receptor alpha-1 (Rattus norvegicus, UniProt P15823+P23944+P43140); assay: Displacement of [3H]prazosin from adrenergic alpha-1 receptor in rat cerebral cortex cells; assay type: cell-based
T2 sequence (P15823 whole entry): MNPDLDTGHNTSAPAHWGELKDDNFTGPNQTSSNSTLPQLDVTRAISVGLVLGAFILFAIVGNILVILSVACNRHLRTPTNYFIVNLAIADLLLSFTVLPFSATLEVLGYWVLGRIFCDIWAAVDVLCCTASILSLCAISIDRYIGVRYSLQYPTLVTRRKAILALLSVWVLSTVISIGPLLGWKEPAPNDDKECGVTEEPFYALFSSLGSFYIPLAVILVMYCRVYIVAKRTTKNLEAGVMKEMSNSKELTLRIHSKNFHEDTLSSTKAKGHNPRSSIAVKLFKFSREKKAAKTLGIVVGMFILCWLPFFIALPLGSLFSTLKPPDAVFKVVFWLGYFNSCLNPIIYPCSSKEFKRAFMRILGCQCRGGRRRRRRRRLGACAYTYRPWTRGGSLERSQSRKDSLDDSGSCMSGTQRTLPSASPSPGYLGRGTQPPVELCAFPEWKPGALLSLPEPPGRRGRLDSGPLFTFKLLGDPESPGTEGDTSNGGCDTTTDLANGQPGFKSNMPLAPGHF
T2 sequence (P23944 whole entry): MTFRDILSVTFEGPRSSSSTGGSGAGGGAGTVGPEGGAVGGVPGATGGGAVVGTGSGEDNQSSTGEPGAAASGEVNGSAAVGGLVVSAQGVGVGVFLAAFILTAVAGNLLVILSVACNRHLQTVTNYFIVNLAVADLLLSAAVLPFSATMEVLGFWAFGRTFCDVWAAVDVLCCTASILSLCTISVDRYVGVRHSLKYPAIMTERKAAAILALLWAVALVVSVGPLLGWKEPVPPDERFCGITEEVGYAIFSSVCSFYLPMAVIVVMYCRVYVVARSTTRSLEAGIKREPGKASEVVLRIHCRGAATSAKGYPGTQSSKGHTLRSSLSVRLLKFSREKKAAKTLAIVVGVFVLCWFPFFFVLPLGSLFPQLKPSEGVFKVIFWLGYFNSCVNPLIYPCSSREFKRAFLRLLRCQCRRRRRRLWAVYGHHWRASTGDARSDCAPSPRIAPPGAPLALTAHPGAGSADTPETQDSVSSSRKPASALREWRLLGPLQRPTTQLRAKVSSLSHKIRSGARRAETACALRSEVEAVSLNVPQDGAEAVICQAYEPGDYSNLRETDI
T2 sequence (P43140 whole entry): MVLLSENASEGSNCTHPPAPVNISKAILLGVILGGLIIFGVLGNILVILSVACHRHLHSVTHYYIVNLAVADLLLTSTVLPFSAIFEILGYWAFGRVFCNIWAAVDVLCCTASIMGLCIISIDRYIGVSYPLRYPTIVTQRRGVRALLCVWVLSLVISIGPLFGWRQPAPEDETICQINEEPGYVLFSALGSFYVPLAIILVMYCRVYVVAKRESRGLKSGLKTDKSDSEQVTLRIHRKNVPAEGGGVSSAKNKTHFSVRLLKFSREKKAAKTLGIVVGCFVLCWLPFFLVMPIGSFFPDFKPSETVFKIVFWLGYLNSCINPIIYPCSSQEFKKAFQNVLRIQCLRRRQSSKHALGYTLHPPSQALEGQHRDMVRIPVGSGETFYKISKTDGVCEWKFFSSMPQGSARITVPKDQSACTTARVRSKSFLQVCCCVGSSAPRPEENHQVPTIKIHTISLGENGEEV

[6] = molecular target: Alpha-2A adrenergic receptor (Rattus norvegicus, UniProt P22909); assay: Displacement of [3H]RX 821002 from Adrenergic alpha-2a receptor in rat cerebral cortex cells; assay type: cell-based
[7] = molecular target: 5-hydroxytryptamine receptor 2B (Homo sapiens, UniProt P41595); assay: Binding affinity to 5HT2B receptor by radioligand binding assay
[8] = Half life in Sprague-Dawley rat at 3 mg/kg, po; assay type: ADME, organism-based; set-up: dose 3 mg/kg, route oral; conditions: in vivo
[9] = Oral bioavailability in Sprague-Dawley rat at 3 mg/kg, po and 1 mg/kg, iv; assay type: ADME, organism-based; conditions: in vivo
[10] = molecular target: T3, 5-hydroxytryptamine receptor 1A (Homo sapiens) (UniProt P08908); assay: Activity against 5HT1A receptor relative to 5-HT by Gi-[35S]GTP-gamma-S binding assay; assay type: functional
T3 sequence (whole entry): T1 sequence (P08908 whole entry)

[11] = molecular target: Sodium-dependent serotonin transporter (Homo sapiens, UniProt P31645); assay: Binding affinity to 5HT transporter by radioligand binding assay
Chain of Sodium-dependent serotonin transporter (P31645 whole entry): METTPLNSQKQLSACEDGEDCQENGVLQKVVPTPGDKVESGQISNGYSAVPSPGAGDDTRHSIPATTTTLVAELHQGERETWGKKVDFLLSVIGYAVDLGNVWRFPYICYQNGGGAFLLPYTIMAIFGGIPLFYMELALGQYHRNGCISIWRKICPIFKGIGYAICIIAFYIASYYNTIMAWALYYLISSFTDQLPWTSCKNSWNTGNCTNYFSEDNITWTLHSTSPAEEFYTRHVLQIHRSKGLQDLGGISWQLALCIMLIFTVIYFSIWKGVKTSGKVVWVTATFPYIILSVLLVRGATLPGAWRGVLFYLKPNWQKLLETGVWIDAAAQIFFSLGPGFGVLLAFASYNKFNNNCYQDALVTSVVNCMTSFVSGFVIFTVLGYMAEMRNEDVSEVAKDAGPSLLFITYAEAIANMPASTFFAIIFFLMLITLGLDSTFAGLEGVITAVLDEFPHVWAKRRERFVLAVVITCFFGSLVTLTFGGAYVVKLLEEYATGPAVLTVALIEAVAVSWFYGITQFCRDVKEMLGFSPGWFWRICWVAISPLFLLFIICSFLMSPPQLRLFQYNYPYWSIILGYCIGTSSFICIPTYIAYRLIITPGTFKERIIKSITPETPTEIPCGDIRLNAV

Chain of 5-hydroxytryptamine receptor 2A (P28223 whole entry): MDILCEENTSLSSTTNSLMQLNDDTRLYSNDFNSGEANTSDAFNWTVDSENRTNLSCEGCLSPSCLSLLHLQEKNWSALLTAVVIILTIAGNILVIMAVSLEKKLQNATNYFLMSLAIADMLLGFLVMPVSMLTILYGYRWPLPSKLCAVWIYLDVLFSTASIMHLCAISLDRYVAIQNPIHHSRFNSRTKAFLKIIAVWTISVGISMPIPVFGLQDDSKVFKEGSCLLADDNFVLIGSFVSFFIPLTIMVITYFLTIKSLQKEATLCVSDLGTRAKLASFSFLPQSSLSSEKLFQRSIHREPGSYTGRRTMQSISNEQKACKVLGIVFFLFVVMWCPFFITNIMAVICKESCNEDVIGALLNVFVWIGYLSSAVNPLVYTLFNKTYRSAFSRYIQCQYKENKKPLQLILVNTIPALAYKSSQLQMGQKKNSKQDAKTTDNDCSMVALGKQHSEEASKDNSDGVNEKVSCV
Chain of Alpha-2A adrenergic receptor (P22909 whole entry): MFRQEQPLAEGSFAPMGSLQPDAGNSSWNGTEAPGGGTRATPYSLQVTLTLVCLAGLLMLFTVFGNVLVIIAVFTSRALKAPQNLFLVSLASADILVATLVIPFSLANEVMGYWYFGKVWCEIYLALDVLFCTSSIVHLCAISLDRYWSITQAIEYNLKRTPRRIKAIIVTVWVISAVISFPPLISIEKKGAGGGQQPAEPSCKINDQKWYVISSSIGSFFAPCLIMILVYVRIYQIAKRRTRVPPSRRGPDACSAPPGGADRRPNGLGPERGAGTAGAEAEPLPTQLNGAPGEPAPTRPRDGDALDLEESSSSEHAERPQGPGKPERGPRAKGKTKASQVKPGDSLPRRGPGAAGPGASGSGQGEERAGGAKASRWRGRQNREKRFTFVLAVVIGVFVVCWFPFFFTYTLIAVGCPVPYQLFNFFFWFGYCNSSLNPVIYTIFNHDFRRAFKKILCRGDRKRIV
Chain of 5-hydroxytryptamine receptor 7 (P34969 whole entry): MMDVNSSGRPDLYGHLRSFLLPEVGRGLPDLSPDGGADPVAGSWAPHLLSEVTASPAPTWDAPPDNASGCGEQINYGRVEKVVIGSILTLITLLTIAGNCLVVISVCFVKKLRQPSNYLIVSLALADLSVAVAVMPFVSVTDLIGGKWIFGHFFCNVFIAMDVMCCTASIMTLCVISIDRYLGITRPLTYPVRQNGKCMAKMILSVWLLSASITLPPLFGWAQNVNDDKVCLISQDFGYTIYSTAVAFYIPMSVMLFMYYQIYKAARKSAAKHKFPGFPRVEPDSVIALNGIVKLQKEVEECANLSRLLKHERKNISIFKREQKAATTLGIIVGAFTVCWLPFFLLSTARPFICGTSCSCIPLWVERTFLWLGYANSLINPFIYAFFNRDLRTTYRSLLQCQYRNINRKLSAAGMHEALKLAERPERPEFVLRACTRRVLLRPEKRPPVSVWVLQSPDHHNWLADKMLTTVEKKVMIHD
Chain of 5-hydroxytryptamine receptor 2B (P41595 whole entry): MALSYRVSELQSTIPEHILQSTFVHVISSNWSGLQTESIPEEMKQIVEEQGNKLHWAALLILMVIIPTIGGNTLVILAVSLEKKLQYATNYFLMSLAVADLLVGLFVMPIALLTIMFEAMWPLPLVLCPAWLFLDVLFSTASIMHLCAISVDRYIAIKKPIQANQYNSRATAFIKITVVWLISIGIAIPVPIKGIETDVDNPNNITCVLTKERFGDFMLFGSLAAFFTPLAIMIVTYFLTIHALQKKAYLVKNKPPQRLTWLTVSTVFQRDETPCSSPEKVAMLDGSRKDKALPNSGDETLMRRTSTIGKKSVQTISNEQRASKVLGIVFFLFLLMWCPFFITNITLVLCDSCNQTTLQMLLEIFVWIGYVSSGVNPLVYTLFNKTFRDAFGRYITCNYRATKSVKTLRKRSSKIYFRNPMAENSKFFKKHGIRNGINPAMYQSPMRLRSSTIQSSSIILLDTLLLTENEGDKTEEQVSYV

Ki [1]: 30 nM
Ki [2]: 1 nM
Ki [3]: 490 nM
EC50 [4]: 21 nM
Ki [5]: 6 nM
Ki [6]: 12 nM
Ki [7]: 53 nM
half-life [8]: 1 h
bioavailability [9]: 2%
Activity [10]: 65%
Ki [11]: 200 nM
Structure (SMILES): COc1ccccc1N1CCN(CCCCNS(=O)(=O)c2ccc(C)cc2)CC1
